Results from patent publication US20200206187A1, “SCREENING PLATFORM TO IDENTIFY THERAPEUTIC DRUGS OR AGENTS FOR TREATMENT OF ALZHEIMER'S DISEASE” (priority 2017, published 2020).
“Also recorded” adds a separate entry of the source.

Key:
Assay type in all cases: cell-based, murine
[1] = tested on: naïve BV2 microglial cells; experiment: Abeta42 uptake assay into naïve BV2 microglial cells (Wako Abeta42 ELISA); settings: naïve BV2, 3 h pre-treatment, 300 nM Abeta42 for 2 h (FIG. 3)
Experimental: (§1) As shown in the figures, compounds were selected and tested in microglial and 3D AD cell culture models at a range of concentrations, and over a period of time ranging from hours to days. The culture models were chosen to elucidate different stages and biological aspects of Alzheimer's disease. The toxicity of the compounds was assessed analyzing the cultures media with the commercially available assay (CytoTox-ONE™, Promega) that measures the release of LDH. Toxic concentrations were excluded from further testing. For microglial cultures, Aβ42 and Aβ40 uptake assays were carried forward for 2 to 24 hours following 3 hours of compound pre-treatment. The experimental outcomes were determined by measuring increased internalized Aβ42 and Aβ40 levels by a commercially available ELISA assay (Wako Abeta42 ELISA kit). Alternatively, LPS-activation assays were carried forward for 3 h following 3 hours of compound pre-treatment. The reduction of toxic cytokines released in the culture media was monitored.
(§2) Naïve BV2 Cells, or BV2 stably expressing wt-CD33, were seeded in 24-well plates at the density of 2.5×10E5 cells for BV2 and 4×10E5 cells for wt-CD33 clone, in proliferating media. […] Protein concentrations in the lysate supernatants were determined with the Pierce™ BCA protein assay kit. 2-3 μg/well of protein from the lysates was analyzed for Abeta42 uptake using the Wako Abeta42 ELISA kit. […]

[2] = tested on: naïve BV2 microglial cells; experiment: LDH toxicity assay (CytoTox-ONE) on naïve BV2 microglial cells; settings: 5 hours of treatment (FIG. 1)
Experimental: as §1
(§3) Naïve BV2 Cells, or BV2 stably expressing wt-CD33, were seeded in 24-well plates at the density of 2.5×10E5 cells for BV2 and 4×10E5 cells for wt-CD33 clone, in proliferating media. On the following day, cells were treated with compounds, or DMSO as a control, at different concentrations in proliferating media for 3 hours. For Abeta42 and Abeta40 uptake assays, cells were washed twice with 500 μL/well of PBS and treated with compounds/DMSO in the presence of 300 nM Abeta peptide in DMEM media for 2 hours. At the end of the 2 hour incubation, 150 μL of media were collected from the 24-well plates. They were centrifuged at 4° C., 2500 rpm for 10 min, transferred to new plates and used to assess compounds toxicity with CytoTox-ONE™ (LDH) assay. […] Protein concentrations in the lysate supernatants were determined with the Pierce™ BCA protein assay kit. 2-3 μg/well of protein from the lysates was analyzed for Abeta42 uptake using the Wako Abeta42 ELISA kit. […]

[3] = tested on: wt-CD33 expressing BV2 cells; experiment: Abeta42 uptake assay into wt-CD33 expressing BV2 cells (Wako Abeta42 ELISA); settings: wt-CD33 expressing BV2, 3 h pre-treatment, 300 nM Abeta42 for 2 h (FIG. 4)
Experimental: as §1, §2

[4] = tested on: wtCD33-expressing microglial cells; experiment: LDH toxicity assay (CytoTox-ONE) on wtCD33-expressing microglial cells; settings: 5 hours of treatment (FIG. 2)
Experimental: as §1, §3

[5] = tested on: naïve BV2 microglial cells; experiment: Abeta40 uptake assay into naïve BV2 microglial cells (Cisbio Abeta40 HTRF); settings: naïve BV2, 3 h pre-treatment, 300 nM Abeta40 for 2 h (FIG. 5)
Experimental: as §1, §2

[6] = tested on: wt-CD33 expressing BV2 cells; experiment: Abeta40 uptake assay into wt-CD33 expressing BV2 cells (Cisbio Abeta40 HTRF); settings: wt-CD33 expressing BV2, 3 h pre-treatment, 300 nM Abeta40 for 2 h (FIG. 6)
Experimental: as §1, §2

[7] = tested on: naïve BV2 microglial cells; experiment: Abeta42 uptake assay in microglial cells, 24-hour pre-treatment protocol
Experimental: (§4) The protocol used for 24-hour pre-treatment testing in microglial cells was as follows.
(§5) On day zero the naïve BV2 microglial cells were seeded in proliferating media.
(§6) On day one the cells were then treated with 817MA, or DMSO as a control, in proliferating media for 24 hours, at concentrations ranging from 0 to 50 μM.
(§7) On day two the cells were then washed twice with PBS and treated with compounds/DMSO in the presence of 300 nM Abeta42 peptide in DMEM media for 2 hours. The compounds toxicity was assessed in the media collected at the end of the treatment with CytoTox-ONE™ (LDH) assay. The remaining cells were lysed with RIPA buffer supplemented with protease and phosphatase inhibitors. Protein concentrations were determined with the Pierce™ BCA protein assay kit. Normalized lysates were analyzed for Abeta42 uptake using the Wako Abeta42 ELISA kit.

[8] = tested on: naïve BV2 microglial cells; experiment: LDH toxicity assay in microglial cells, 24-hour pre-treatment protocol; settings: 24 h pre-treatment (FIG. 25)
Experimental: as §4, §5, §6, §7

[9] = tested on: LPS-activated BV2 microglial cells; experiment: BV2 LPS activation cytokine assay (MSD Proinflammatory Panel 1); settings: BV2, 1 μg/mL LPS 3 h, maleate
Experimental: as §1
For microglial activation experiments, cells were treated with compounds/DMSO in the presence of 1 μg/mL LPS in proliferating media for 3 hours. The media was collected, cleared of particulate and analyzed using MSD Proinflammatory Panel 1 cytokine assay kit.
FIG. 7 tabulates the results from an LPS activation testing of microglial cells, showing that cytokines KC/GRO, IL-6, IL-10 and TNF-α were detectable upon LPS activation, although KC/GRO was only detectable in undiluted media. The 10 cytokines were simultaneously analyzed in microglial conditioned media. FIG. 8-15 show the results for an assay to test the effect of test compounds DMSO, 817MA, 817A11 and 614P on cytokines KC/GRO, IL-6, IL-10 and TNF-α. […] The two sequential assays determine which if any cytokines are detected upon LPS activation, followed by determination of the reduction in detectable cytokines upon treatment/exposure to a test compound.

| Abeta42 uptake EC50 (comparison between compounds) [1] | Abeta42 uptake EC50 (comparison between compounds) [3] | EC50 ([7]; Mus musculus, BV-2, following 24 hours of compound pre-treatment (FIG. 26)) [µM] | SMILES | LDH toxicity [2] | LDH toxicity [4] | Abeta40 uptake EC50 (comparison between compounds) [5] | Abeta40 uptake EC50 (comparison between compounds) [6] | Abeta42 uptake versus DMSO control ([7]; above about 1 μM, 24 h pre-treatment (FIG. 26)) | LDH toxicity compared to DMSO ([8]; at about 30 μM) | LDH toxicity ([8]; below about 50 μM) | TNFα production upon LPS activation ([9]; first and second experiment (FIG. 8, 9)) | IL-6 production upon LPS activation ([9]; first and second experiment (FIG. 10, 11)) | IL-10 production upon LPS activation ([9]; first and second experiment (FIG. 12, 13)) |
| --- | --- | --- | --- | --- | --- | --- | --- | --- | --- | --- | --- | --- | --- |
| higher EC50 | higher EC50 |  | CS(=O)(=O)Nc1cc2occ(NC=O)c(=O)c2cc1Oc1ccccc1 [Compound 614P, N-(3-formamido-4-oxo-6-phenoxy-4H-chromen-7-yl)] | No statistically significant toxicity | No statistically significant toxicity | higher EC50 than both 817MA and 817A11 | higher EC50 than both 817MA and 817A11 |  |  |  |  |  |  |
|  |  |  | O=C(CCOCCc1ccc2sccc2c1)N1CC(O)C1 [Compound 817A11, 1-{3-[2-(1-benzothiophen-5-yl)ethoxy]propionyl}azetidin-3-ol] | No statistically significant toxicity | No statistically significant toxicity | lower EC50 Abeta40 uptake than 817MA treated cells | lower EC50 Abeta40 uptake than 817MA treated cells |  |  |  |  |  |  |
|  |  | ~20 | O=C(O)/C=C\C(=O)O.OC1CN(CCCOCCc2ccc3sccc3c2)C1 [Compound 817MA, 1-(3-(2-(1-benzothiophen-5-yl)ethoxy)propyl)azetidin-3-ol maleate] | No statistically significant toxicity | No statistically significant toxicity |  |  | greater than the DMSO control | no statistically significant toxicity | low or no toxicity | reduced concentrations; also recorded: only compound effectively reducing TNFα production | reduced concentrations; also recorded: most effective compound for reducing IL-6 production | reduced concentrations; also recorded: most effective compound for reducing IL-10 production |
